# According to patent EP3641735B1, “PHARMACEUTICAL TABLET COMPOSITION COMPRISING BILASTINE FORM 3 AND A WATER-SOLUBLE FILLER” (Alfred E. Tiefenbacher (GmbH & Co. KG), priority 2017, dated 2019):
# Tests used:
# [1] = neat forms; 1 month at 25°C/60%RH and at 40°C/75%RH; cited from earlier work
# [2] = Polymorphic analysis of API by XRD before and after micronisation (jet milling); type: physicochemical
# Source text: For example, two from five batches of micronized API have shown the contamination of form 2 with form 3 and dihydrate form A.
Structure (SMILES),polymorphic stability on storage [1],polymorphic form of API after micronisation (XRD) ([2]; listed as polymorphic form 2),polymorphic form of API after micronisation (XRD) ([2]; listed as Bilastine form 3)
"CCOCCn1c(C2CCN(CCc3ccc(C(C)(C)C(=O)O)cc3)CC2)nc2ccccc21 [Alpha, 2-[4-(2-(4-(1-(2-ethoxyethyl)-1H-benzimidazol-2-yl)piperidin-1-yl)ethyl)phenyl]-2-methylpropionic acid]",stable on storage,–,–
"CCOCCn1c(C2CCN(CCc3ccc(C(C)(C)C(=O)O)cc3)CC2)nc2ccccc21 [Eta, 2-[4-(2-(4-(1-(2-ethoxyethyl)-1H-benzimidazol-2-yl)piperidin-1-yl)ethyl)phenyl]-2-methylpropionic acid]",stable on storage,–,–
"CCOCCn1c(C2CCN(CCc3ccc(C(C)(C)C(=O)O)cc3)CC2)nc2ccccc21 [form 1, 2-[4-(2-(4-(1-(2-ethoxyethyl)-1H-benzimidazol-2-yl)piperidin-1-yl)ethyl)phenyl]-2-methylpropionic acid]",stable on storage,–,–
"CCOCCn1c(C2CCN(CCc3ccc(C(C)(C)C(=O)O)cc3)CC2)nc2ccccc21 [form 2, 2-[4-(2-(4-(1-(2-ethoxyethyl)-1H-benzimidazol-2-yl)piperidin-1-yl)ethyl)phenyl]-2-methylpropionic acid]",stable on storage,presence of form 3 and dihydrate form A as polymorphic impurities,–
"CCOCCn1c(C2CCN(CCc3ccc(C(C)(C)C(=O)O)cc3)CC2)nc2ccccc21 [form 3, 2-[4-(2-(4-(1-(2-ethoxyethyl)-1H-benzimidazol-2-yl)piperidin-1-yl)ethyl)phenyl]-2-methylpropionic acid]",converted partially into the form 1,–,remains in the polymorphic form 3 without changes
